Assay [1] deals with T1, Activin receptor type-1B (Homo sapiens) (UniProt P36896).
T1 sequence (whole entry): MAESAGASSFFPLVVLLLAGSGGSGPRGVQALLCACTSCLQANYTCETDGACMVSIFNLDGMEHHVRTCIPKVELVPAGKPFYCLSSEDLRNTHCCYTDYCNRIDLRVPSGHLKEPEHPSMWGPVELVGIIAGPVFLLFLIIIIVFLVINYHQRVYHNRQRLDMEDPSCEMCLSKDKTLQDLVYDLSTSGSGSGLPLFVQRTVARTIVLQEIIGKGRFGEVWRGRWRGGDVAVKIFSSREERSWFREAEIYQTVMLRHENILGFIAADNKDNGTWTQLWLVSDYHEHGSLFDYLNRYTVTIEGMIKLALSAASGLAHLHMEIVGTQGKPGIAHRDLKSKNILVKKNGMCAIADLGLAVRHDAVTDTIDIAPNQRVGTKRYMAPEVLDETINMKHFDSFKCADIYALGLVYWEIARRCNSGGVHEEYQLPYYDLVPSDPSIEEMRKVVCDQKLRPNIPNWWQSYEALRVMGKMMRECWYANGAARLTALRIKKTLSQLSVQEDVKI
The assay can be described thus: Inhibition of human ALK4 at 1.82 nM by HotSpot assay relative to control.

Assay [2] deals with Calcium/calmodulin-dependent protein kinase kinase 1 (Homo sapiens) (UniProt Q8N5S9). The assay can be described thus: Inhibition of human CAMKK1 at 1.82 nM by HotSpot assay relative to control.
Calcium/calmodulin-dependent protein kinase kinase 1 (Homo sapiens), sequence (Q8N5S9 whole entry, looked up): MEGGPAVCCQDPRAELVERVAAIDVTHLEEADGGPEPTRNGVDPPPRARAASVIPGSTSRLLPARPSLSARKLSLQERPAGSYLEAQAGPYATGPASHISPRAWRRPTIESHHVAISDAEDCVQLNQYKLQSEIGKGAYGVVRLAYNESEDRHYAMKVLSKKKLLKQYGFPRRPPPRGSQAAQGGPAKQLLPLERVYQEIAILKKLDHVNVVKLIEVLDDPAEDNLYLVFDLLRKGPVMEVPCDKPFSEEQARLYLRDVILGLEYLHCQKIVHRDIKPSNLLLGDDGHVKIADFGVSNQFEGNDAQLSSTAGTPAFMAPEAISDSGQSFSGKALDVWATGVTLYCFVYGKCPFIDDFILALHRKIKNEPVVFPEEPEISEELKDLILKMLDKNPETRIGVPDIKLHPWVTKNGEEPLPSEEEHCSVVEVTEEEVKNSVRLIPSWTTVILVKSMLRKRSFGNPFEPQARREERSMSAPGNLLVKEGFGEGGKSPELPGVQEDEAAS
The target of assay [3] is Mitogen-activated protein kinase 10 (Homo sapiens) (UniProt P53779). The assay can be described thus: Inhibition of human JNK3 at 1.82 nM by HotSpot assay relative to control.
Mitogen-activated protein kinase 10 (Homo sapiens), sequence (P53779 whole entry): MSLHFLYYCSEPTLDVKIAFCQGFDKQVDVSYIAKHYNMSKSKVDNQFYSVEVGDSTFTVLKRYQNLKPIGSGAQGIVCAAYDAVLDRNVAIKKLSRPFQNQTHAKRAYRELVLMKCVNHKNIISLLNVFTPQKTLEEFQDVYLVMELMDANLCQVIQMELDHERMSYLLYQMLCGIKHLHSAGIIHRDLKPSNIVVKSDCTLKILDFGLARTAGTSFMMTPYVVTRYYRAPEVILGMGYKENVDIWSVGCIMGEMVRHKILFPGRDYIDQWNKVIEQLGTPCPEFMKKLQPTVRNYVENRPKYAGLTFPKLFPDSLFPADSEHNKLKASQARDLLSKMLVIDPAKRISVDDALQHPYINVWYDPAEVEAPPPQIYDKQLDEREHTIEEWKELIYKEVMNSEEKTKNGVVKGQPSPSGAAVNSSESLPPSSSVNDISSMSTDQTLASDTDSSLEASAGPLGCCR
Assay [4] concerns the target Tyrosine-protein kinase Lyn (Homo sapiens) (UniProt P07948). The assay can be described thus: Inhibition of human LYN at 1.82 nM by HotSpot assay relative to control.
The target in assay [5] is T2, Serine/threonine-protein kinase Sgk1 (Homo sapiens) (UniProt O00141).
T2 sequence (whole entry): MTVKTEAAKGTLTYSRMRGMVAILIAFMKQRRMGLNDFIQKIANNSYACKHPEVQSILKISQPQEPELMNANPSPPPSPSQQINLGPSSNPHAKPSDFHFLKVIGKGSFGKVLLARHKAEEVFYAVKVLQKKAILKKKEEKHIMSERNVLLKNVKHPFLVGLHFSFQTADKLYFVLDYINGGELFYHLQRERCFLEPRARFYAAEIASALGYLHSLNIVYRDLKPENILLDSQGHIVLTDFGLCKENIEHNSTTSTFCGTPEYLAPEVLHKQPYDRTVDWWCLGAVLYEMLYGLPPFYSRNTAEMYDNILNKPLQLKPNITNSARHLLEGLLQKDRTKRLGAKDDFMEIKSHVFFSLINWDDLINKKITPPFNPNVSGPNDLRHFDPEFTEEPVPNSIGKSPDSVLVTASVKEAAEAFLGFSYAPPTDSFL
Briefly: Inhibition of human SGK1 at 1.82 nM by HotSpot assay relative to control.

For assay [6], the target named is T3, Serine/threonine-protein kinase Sgk3 (Homo sapiens) (UniProt Q96BR1).
T3 sequence (whole entry): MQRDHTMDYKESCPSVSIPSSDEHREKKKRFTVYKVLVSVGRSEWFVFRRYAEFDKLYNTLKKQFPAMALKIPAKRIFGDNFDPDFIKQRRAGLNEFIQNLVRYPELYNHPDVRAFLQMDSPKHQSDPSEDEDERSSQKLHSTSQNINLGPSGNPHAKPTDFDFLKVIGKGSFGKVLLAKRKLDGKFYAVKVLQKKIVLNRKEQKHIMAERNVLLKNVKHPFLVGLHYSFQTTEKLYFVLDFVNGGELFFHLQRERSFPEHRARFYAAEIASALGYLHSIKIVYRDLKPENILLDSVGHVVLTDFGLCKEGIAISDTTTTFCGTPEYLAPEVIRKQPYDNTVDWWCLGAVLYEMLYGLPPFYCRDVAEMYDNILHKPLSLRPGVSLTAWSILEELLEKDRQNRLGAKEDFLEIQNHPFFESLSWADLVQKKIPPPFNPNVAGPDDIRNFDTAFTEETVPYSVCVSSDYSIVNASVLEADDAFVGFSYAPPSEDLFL
Briefly: Inhibition of human SGKL at 1.82 nM by HotSpot assay relative to control.

Assay [7] deals with Angiopoietin-1 receptor (Homo sapiens) (UniProt Q02763). Briefly: Inhibition of human TEK at 1.82 nM by HotSpot assay relative to control.
Angiopoietin-1 receptor (Homo sapiens), sequence (Q02763 whole entry): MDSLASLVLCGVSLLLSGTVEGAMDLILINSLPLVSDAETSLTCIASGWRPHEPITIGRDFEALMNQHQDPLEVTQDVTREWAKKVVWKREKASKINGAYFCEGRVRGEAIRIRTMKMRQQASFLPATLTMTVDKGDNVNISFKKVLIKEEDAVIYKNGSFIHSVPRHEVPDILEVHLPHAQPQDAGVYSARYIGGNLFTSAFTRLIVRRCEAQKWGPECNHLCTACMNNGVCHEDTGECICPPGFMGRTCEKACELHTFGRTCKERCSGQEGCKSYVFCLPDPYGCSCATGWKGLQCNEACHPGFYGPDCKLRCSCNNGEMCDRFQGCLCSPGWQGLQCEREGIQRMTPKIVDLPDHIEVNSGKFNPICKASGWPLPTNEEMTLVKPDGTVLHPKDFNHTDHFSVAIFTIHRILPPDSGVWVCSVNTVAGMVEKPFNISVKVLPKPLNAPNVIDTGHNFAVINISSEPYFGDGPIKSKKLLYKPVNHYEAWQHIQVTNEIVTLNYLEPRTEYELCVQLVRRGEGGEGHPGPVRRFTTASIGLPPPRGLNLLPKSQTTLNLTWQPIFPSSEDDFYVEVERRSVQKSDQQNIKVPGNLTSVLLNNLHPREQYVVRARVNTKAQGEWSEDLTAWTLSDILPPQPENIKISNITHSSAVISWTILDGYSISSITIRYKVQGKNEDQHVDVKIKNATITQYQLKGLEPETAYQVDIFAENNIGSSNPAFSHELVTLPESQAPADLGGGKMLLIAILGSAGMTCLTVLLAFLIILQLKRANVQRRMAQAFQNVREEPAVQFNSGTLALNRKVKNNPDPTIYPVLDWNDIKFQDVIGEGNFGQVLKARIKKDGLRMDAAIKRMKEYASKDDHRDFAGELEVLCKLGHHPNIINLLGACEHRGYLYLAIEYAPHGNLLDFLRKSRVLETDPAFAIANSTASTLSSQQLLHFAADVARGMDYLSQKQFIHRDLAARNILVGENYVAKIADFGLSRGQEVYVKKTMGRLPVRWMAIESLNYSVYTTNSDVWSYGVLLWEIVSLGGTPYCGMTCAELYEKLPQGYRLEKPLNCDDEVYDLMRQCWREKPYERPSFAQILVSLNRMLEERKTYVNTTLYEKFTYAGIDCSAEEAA
The target in assay [8] is T4, Serine/threonine-protein kinase haspin (Homo sapiens) (UniProt Q8TF76).
T4 sequence (whole entry): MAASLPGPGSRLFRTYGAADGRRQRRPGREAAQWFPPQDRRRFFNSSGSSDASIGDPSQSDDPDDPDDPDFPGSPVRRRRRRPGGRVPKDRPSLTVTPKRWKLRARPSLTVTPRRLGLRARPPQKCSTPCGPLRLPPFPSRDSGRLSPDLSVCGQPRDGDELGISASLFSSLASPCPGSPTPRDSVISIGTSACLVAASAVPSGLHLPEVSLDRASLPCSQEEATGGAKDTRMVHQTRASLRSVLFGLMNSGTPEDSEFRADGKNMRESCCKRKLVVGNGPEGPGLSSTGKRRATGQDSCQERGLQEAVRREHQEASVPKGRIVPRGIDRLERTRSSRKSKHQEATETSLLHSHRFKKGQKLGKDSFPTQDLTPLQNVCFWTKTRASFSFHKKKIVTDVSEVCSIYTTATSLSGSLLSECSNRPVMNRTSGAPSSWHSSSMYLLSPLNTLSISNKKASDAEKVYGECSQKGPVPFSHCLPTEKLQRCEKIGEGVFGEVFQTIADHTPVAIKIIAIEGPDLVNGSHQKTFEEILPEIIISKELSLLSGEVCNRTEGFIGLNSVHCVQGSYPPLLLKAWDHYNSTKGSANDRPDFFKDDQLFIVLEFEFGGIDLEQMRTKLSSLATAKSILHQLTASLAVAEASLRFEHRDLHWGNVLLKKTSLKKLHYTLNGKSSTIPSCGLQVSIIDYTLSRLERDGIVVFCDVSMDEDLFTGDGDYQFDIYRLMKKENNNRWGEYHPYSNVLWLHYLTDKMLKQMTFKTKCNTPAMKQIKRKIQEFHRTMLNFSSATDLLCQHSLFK
The assay can be described thus: Inhibition of human Haspin at 18.6 nM by HotSpot assay relative to control.

Tyrosine-protein kinase Lyn (Homo sapiens), sequence (P07948 2-512 limits assumed): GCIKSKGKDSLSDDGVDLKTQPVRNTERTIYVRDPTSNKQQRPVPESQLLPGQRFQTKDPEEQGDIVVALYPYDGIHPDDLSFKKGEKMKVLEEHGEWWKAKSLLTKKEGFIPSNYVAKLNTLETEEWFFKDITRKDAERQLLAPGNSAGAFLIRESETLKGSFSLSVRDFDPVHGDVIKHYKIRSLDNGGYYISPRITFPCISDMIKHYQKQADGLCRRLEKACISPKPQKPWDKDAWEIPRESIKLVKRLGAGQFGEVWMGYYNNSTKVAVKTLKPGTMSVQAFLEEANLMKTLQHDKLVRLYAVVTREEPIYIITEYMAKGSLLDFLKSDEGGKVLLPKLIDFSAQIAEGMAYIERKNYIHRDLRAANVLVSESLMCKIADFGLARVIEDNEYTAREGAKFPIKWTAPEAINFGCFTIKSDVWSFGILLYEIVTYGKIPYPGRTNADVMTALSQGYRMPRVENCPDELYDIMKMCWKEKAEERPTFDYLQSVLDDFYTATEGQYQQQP

For the compound `C[C@@]1(C(=O)Nc2ccc(F)nc2)CCCN1c1nc(Nc2cc(C3CC3)n[nH]2)c2cccn2n1`, the inhibition is 0.66% in assay [1]; -5.91% in assay [2]; -8.84% in assay [3]; 3.66% in assay [4]; -2.56% in assay [5]; -2.25% in assay [6]. Also, the inhibition in assay [7] was 4%.

As to `C[C@]1(O)C[C@@H](c2nc(-c3ccc4ccc(-c5ccccc5)nc4c3)c3c(N)nccn32)C1`, in assay [8], the inhibition is -1.76%.

(Values after ChEMBL document CHEMBL5653615 (J Biol Chem, 2013).)
